Key:
Assay type in all cases: cell-based
[1] = system: moderately pigmented normal human epidermal melanocytes (NHEM-MP); test: In vitro pigmentation assay, melanin synthesis, 2D NHEM moderately pigmented; conditions: 10 days; for melanin synthesis compared to the non-stimulated control, reference compounds: 1 mM L-tyrosine, 100 μM IBMX or 10 μM NDP-MSH
Method: (§1) Highly and moderately pigmented melanocytes were seeded in 24-well plates and cultured in culture medium for 24 hours. The medium was then replaced by culture medium containing or not (control) the test compounds or the reference compounds (L-tyrosine at 1 mM, IBMX at 100 and 200 μM and NDP-MSH at 10 μM). The cells were then incubated for 10 days with treatment renewal at day 3 and day 7. All experimental conditions were performed in n=3. At the end of the incubation time, the culture supernatants were removed, and melanin was extracted by cell lysis using a 0.5 N NaOH solution. The optical density (OD) of each experimental point was measured at 405 nm and melanin quantity was determined according to melanin standard curve (standard curve ranging from 0.39 to 100 μg/ml). The results were expressed in μg/ml of melanin. […] NHEM-HP response to L-tyrosine and NDP-MSH was stronger than in NHEM-MP while IBMX induced a stronger response in the NHEM-MP.

[2] = system: highly pigmented normal human epidermal melanocytes (NHEM-HP); test: In vitro pigmentation assay, melanin synthesis, 2D NHEM highly pigmented; conditions: 10 days; for melanin synthesis compared to the non-stimulated control, reference compounds: 1 mM L-tyrosine, 100 μM IBMX or 10 μM NDP-MSH
Method: as §1

human wild type MC5R = target: T1, human wild type MC5R (Homo sapiens, UniProt P33032); test: cAMP GloSensor assay, MC5R; conditions: HEK293 cells transiently transfected with human MC5R; read-out: average signaling potency (EC50), cAMP GloSensor, MC5R
T1 construct: expressed in transfected cells; host or cells: HEK293 / HEK 293T, pcDNA3.1(+)

[3] = system: melanized reconstituted human epidermis (RHE/MEL/001); test: In vitro pigmentation assay, 3D reconstituted human epidermis, dermoscopy
Method: The study was carried out on melanized human epidermis (RHE/MEL/001; batch CB0521-3) in vitro reconstituted with NHEKs (Normal human epidermal keratinocytes, Lonza 00192906) isolated from foreskin of 3 neonatal Caucasian donors and NHEM-DP (Normal Human Epidermal Melanocytes-Darkly pigmented) isolated form one donor (phototype IV-V). The tissues were cultured at the air-liquid interface in Epilife medium (Fisher Scientific, MEP1500CA) containing specific supplements (with among others Human Keratinocytes Growth Factors, Fisher Scientific S0015 or SO01K) and antibiotics (Gentamycin, Fisher Scientific, 15710049). They were maintained in a humid atmosphere at 37° C. with 5% CO2.
RHE/MEL/001 were reconstituted and cultivated at the air-liquid interface during 14 days in Epilife medium supplemented with specific growth supplements (as described in paragraph 1) in a humid atmosphere at 37° C. with CO2 5%.
IBMX (Sigma; 15879) at 100 µM was used as tanning reference compound to validate the experiment. A DMSO control (corresponding to the solvent used to solubilize IBMX) at 0.02% (corresponding to the final concentration in DMSO found in the culture medium for the condition treated with IBMX) was planned as well. Four replicates were planned per condition (n=4).
At the end of the 10 days treatments (at day 14), macroscopic high-resolution pictures of tissues (n=4) were taken. This was performed using the C-Cube device (Dermoscope type tool; Pixience, France) coupled to C-Cube clinical 3 software, which uses a proprietary method of colour calibration, and provides razor-sharp images of high quality and precision. The following endpoints were calculated, each one taking into account 3 values from the mode “L* a* b*” with L* reflecting the luminance/brightness (value from 0 to 100 with high values for clear skins), a* to gives an idea about the redness of the skin (value from −60 to 60 on the red/green axis) and b* to gives an idea about the yellowness of the skin (value from −60 to 60 on the blue/yellow axis): • ITA (Individual Typology Angle) characterizing the phototype, compared to a standard scale, with ITA>55° for very clear skins and ITA<−30° for black skins. • PI (Pigmentation Index) whose value is directly proportional to the skin pigmentation, with PI from 140 for clear skins to 200 for dark skins. • Colorimetric difference (score or ΔE) allows to quantify colour variation between a test condition and a reference. […]
The two test items, hydro-soluble, were evaluated in parallel of one reference compound known to be a pigmentation inducer, namely IBMX. Their capacity to stimulate the production of melanin was evaluated by visual quantification of melanin on macroscopic high resolution pictures obtained by dermoscopy. […]

[4] = 10 μM in culture medium, 10 days, dermoscopy

T1 sequence (P33032 whole entry): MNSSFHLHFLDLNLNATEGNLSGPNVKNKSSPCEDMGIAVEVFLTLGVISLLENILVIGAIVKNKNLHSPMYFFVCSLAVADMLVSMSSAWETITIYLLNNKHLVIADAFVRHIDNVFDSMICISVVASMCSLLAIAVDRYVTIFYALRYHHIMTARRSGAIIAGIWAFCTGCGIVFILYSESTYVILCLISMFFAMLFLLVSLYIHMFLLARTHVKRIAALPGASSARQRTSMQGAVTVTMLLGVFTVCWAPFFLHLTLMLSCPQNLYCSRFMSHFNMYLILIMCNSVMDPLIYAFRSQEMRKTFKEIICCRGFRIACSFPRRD

N[C@@H](Cc1ccc(O)cc1)C(=O)O [L-tyrosine]
melanin synthesis compared to the non-stimulated control, reference compounds [1]: induced a stimulation of melanin synthesis | melanin synthesis compared to the non-stimulated control, reference compounds [2]: induced a stimulation of melanin synthesis

CC(C)Cn1c(=O)n(C)c(=O)c2[nH]cnc21 [IBMX]
melanin synthesis compared to the non-stimulated control, reference compounds [1]: induced a stimulation of melanin synthesis | melanin synthesis compared to the non-stimulated control, reference compounds [2]: induced a stimulation of melanin synthesis

NDP-MSH
melanin synthesis compared to the non-stimulated control, reference compounds [1]: induced a stimulation of melanin synthesis | melanin synthesis compared to the non-stimulated control, reference compounds [2]: induced a stimulation of melanin synthesis

CC(=O)N[C@@H](CCCNC(=N)N)C(=O)N[C@H]1CSSC[C@@H](C(N)=O)NC(=O)[C@H](Cc2c[nH]c3ccccc23)NC(=O)[C@H](CCCNC(=N)N)NC(=O)[C@@H](Cc2ccccc2)NC(=O)[C@H](Cc2c[nH]cn2)NC(=O)[C@@H](C)NC1=O [setmelanotide, reference compound]
EC50 (human wild type MC5R): 451 ± 143 nM

Setmelanotide acetate [reference compound]
modulation of melanin synthesis [1]: did not modulate | melanin synthesis ([2]; 10 μM): 130 % of the control | Individual typology angle (ITA) [3, 4]: significantly modulated | pigmentation index (PI) [3, 4]: significantly modulated | visual colorimetric difference (score, ΔE) [3, 4]: significantly modulated | effect on epidermis pigmentation (conclusion of dermoscopy analysis) ([3]; 10 μM, human epidermis in culture): has a tanning effect
